Source: PubChem BioAssay AID720623 (The Scripps Research Institute Molecular Screening Center, 2013)
The source made the active and inactive calls. How the calls were made is not given here.

System: methionyl-tRNA synthetase (Trypanosoma brucei brucei)
Assay: inhibition of trypanosomal MetRS charging activity – biochemical, radioactivity, assay provider, counter-screen for T. brucei MetRS inhibitor project, late-stage follow-up (AID 720623)
Settings: Recombinant T. brucei MetRS enzyme, [3H]methionine tRNA aminoacylation, filter scintillation, 120 min, stronger effect = higher value

Structure (SMILES) | inhibition (at 10 µM) | inhibition (inhibition, at 1 µM) [%]
O=C(NCc1nc2ccccc2[nH]1)C1=C[C@H](C2CC2)C[C@H](OCc2ccc(CO)cc2)O1 | 56.9% | -3.3
O=C(NCc1nc2ccccc2[nH]1)C1=C[C@H](c2ccc3c(c2)OCO3)C[C@H](OCCCCO)O1 | 79.4% | 5.68
C[C@H](O)[C@@H]1C(=O)N2CCc3c([nH]c4ccccc34)[C@@H]2C[C@@H]1N(C)Cc1ccc2c(c1)OCO2 | 80.4% | 1.98
O=C(C[C@H]1C(=O)N(Cc2ccccc2)C[C@@H]1c1ccc(Br)cc1)Nc1ccc(Br)cc1 | 94.4% | 55.7
O=C(CN1CCSC1=NCc1ccccc1)c1ccc(Cl)c(Cl)c1 | 28% (inactive) | -1.95
CCOC(=O)N1CCC(Nc2c(Nc3ccc(F)cc3)c(=O)c2=O)CC1 | 72.7% | 28.4
Brc1cnc2nc(SCc3nc4ccccc4[nH]3)[nH]c2c1 | 84.9% | 23.7
COc1ccccc1NS(=O)(=O)c1cccc(NC(=O)Nc2ccccc2)c1 | 95.1% | 57
Clc1ccc(-c2nnc(SCc3nc4ccccc4[nH]3)o2)c(Cl)c1 | 97% | 75.3
COc1ccc(OCC(O)CNC(=O)Nc2ccc(Cl)cc2)cc1 (centres undefined) | 61.9% | 28.9
COc1ccccc1-n1c(SCC(=O)Nc2ccc(Cl)cc2)nc(O)c(Cc2ccccc2)c1=O | 67% | 2.04
O=C(CC=NOCc1ccc([N+](=O)[O-])cc1)Nc1ccc(Br)cc1 | 84.7% | 32.2
O=C1CC(SCc2nc3ccccc3[nH]2)C(=O)N1c1cccc(Cl)c1 (centres undefined) | 52.6% | 19.7
O=C(NCc1nc2ccccc2[nH]1)C1=C[C@H](c2csc3ccccc23)C[C@H](OCCCCO)O1 | 97.8% | 71.1
O=C(NCCc1nc2ccccc2[nH]1)c1ccc(Cl)c([N+](=O)[O-])c1 | 99.6% | 89.8
O=C(NCc1nc2ccccc2[nH]1)C1=C[C@@H](c2ccccc2)C[C@@H](OCc2ccc(CO)cc2)O1 | 94.3% | 44.6
O=C(NCc1nc2ccccc2[nH]1)C1=C[C@@H](c2ccc(Br)cc2)C[C@@H](OCc2ccc(CO)cc2)O1 | 97.6% | 62.1
O=C(N/C(=C\c1cccnc1)c1nc2ccccc2[nH]1)c1cccc(Br)c1 | 71.7% | 14.4
CN1CC(=O)N2C(c3cccc([N+](=O)[O-])c3)c3[nH]c4ccccc4c3C[C@H]2C1=O (some centres undefined) | 96.7% | 57.7
CN(CC(=O)Nc1ccc(Cl)cc1)C(=O)c1ccc(-n2cncn2)c([N+](=O)[O-])c1 | 92.5% | 38
Cc1ccc(NC(=O)CN(C)C(=O)CCSc2ccc(F)cc2)cc1 | 67.3% | -1.05
Oc1c(Cl)cc(Cl)cc1CNc1nc2ccccc2[nH]1 | 98.7% | 88.3
O=C(CCC(=O)Nc1cccc([N+](=O)[O-])c1)NN=Cc1cccs1 | 74.3% | 6.25
O=C1CC(N(CCc2ccccc2)C(=S)Nc2ccccc2)C(=O)N1c1ccc(Br)cc1 (centres undefined) | 97.3% | 84.2
CC(CC(=O)Nc1cccc(Br)c1)=NNC(=O)c1ccc(O)cc1O | 90.5% | 36.5
O=C(NCc1nc2ccccc2[nH]1)C1=C[C@H](c2ccc(Br)cc2)C[C@H](OCCCCO)O1 | 94.3% | 51.6
O=C(Nc1ccc(F)c(Cl)c1)C1CC(=O)n2c(nc3ccccc32)N1 (centres undefined) | 90.3% | 44.9
